US11866416B2, “Streptococcus mutans glucosyl transferase inhibitors for dental caries therapy” (UAB Research Foundation, priority 2018, dated 2024)

Tests used:
GtfB = GtfB (Streptococcus mutans serotype c (strain ATCC 700610 / UA159), UniProt P08987); assay: Zymographic assay on GtfB from S. mutans GtfCD mutants; format: biochemical; conditions: 25 μM
Description: (§1) FIGS. 3A-3C show Gtf patterns of S. mutans UA159 and its mutant variants. Culture supernatants were prepared from S. mutans UA159 and gtf double mutants, and then subjected to SDS-PAGE analysis with equivalent amount of proteins in each lane. […] The intensity of the bands were quantified using ImageJ in comparison to DMSO.
(§2) Supernatants containing Gtf proteins prepared from S. mutans bacterial cultures were subjected to SDS-PAGE analysis and zymographic assay. […] The same amount of the protein sample was used as controls and visualized by protein staining (FIG. 3A, top panels). The lead compounds were also tested against individual Gtfs using supernatant proteins harvested from cultures of various double mutants.
(§3) Construction of S. mutans Gtfs mutants. GtfB, GtfC single mutant, and GtfBC double mutant in which gtf was replaced with a kanamycin resistance cassette, aphA3 (encoding an aminoglycoside phosphotransferase), were gifts from Dr. Robert Burne's Laboratory, University of Florida, Gainesville, Fla. The GtfD mutant was constructed by an overlapping PCR ligation strategy using an erythromycin resistance cassette isolated from the IFDC2 cassette (Xie, Z., Okinaga, T., Qi, F., Zhang, Z. & Merritt, J. Cloning-independent and counterselectable markerless mutagenesis system in Streptococcus mutans. Appl Environ Microbiol 77, 8025-8033 (2011)).

GtfC = GtfC (Streptococcus mutans serotype c (strain ATCC 700610 / UA159), UniProt P13470); assay: Zymographic assay on GtfC from S. mutans GtfBD mutants; format: biochemical; conditions: 25 μM
Description: as §1, §2, §3

gtfs expression = assay: Real time RT-PCR of gtfs expression; format: cell-based, Streptococcus mutans; conditions: S. mutans UA159, different concentrations, calibrated by 16S rRNA
Description: The expression of gtfs was examined by real time RT-PCR. The mRNA expression levels were calibrated by 16S rRNA. Values represent the means±standard deviations from three independent experiments. […] The P value>0.05 is considered to be not significant.
The effect of this potent small molecule on the gene expression of gtfs was also examined. The relative expression level of gtfs was evaluated by real time RT-PCR.

[1] = system: Aggregatibacter actinomycetemcomitans VT1169; assay: Growth of Aggregatibacter actinomycetemcomitans; format: cell-based; conditions: 200 μM
Description: (§4) Cell viability of S. mutans, S. gordonii, S. sanguinis, Aggregatibacter actinomycetemcomitans and Actinomyces. […] The number of colony-forming units (CFU) per milliliter of each sample treated with selected compounds at different concentrations was enumerated after incubation for 24 h at 37° C. and compared to the values obtained from the DMSO control group. Overnight broth cultures were transferred by 1:50 dilutions into fresh THB medium and were allowed to grow until mid-exponential phase (OD470 nm 0.6) before transfer to 96-well plates containing desired concentration of the compound. After 16 h incubation, bacterial growth was measured at OD470, and normalized to the DMSO control (100%).

[2] = system: Actinomyces naeslundii T14VJ1; assay: Growth of Actinomyces naeslundii; format: cell-based; conditions: 200 μM; printed as slight inhibition (>20%)
Description: as §4

S. gordonii biofilm = assay: Mono-species biofilm of S. gordonii; format: cell-based, Streptococcus gordonii; conditions: treated with lead compound
Description: Growth of commensal and dual-species biofilms. Overnight broth cultures were transferred by 1:50 dilutions into fresh THB medium and were allowed to grow until mid-exponential phase (OD470 nm=0.6) before transfer to 96-well plates. For mono-species biofilms, 1:100 dilution of the individual cultures was added to the 96-well plate containing the desired concentration of compound or DMSO. After incubation for 16 h, the biofilms were gently washed with PBS in triplicate and the biofilms were quantified with crystal violet staining. For dual-species biofilms, 1:100 dilution of S. mutans was used and 1:10 dilution of the commensal species (S. sanguinius or S. gordonii) was used as inoculum to seed the 96-well plate containing the desired concentration of compound or DMSO. After incubation for 16 h, the biofilms were scratched off with a sterile spatula and suspended in 100 μL of PBS, the biofilm samples were vortexed. To determine the total number of viable bacterial cells (colony forming units, CFU), 100 μl from dispersed, 16 h biofilms were serially diluted in potassium phosphate buffer and plated in duplicate on BAP. The commensal species could be differentiated from S. mutans due to their characteristic green rings.

S. mutans colonization = assay: Sucrose-dependent Drosophila colonization model; format: in vivo; conditions: 50 μM
Description: Briefly, Gfp tagged S. mutans bacteria were infected into flies along with the treatment appropriate compound at 100 μM in a feeding-assay.
Mid-log phase THB cultures of Gfp-tagged (green fluorescent protein) S. mutans UA159 were spun down and resuspended in a solution containing 5% sucrose and 50 μM of the compound. 100 μL of resuspended cells were spotted onto a sterile filter that was placed on the surface of 5 mL of solidified 5% sucrose agar in a plastic vial. The vials were allowed to dry at room temperature for 30 minutes prior to addition of flies. Male Canton S flies (1-3 days old) were treated with antibiotics for 2 days and starved for 3 hours prior to the addition to vials supplied with S. mutans (10 flies per vial). The colonization of flies by Gfp-tagged strains were analyzed by Nikon elipse 90i microscope, equipped with an Epi-fluorescence and NIS elements AR imaging system.
The intensity of the fluorescence was measured in the guts of the flies fed with the Gfp tagged bacteria after 7 days of infection.
Cultures of Gfp-tagged (green fluorescent protein) S. mutans UA159 grown to middle log phase were spun down and re-suspended in a solution containing 5% sucrose and 50 μM of each compound. 100 μL of re-suspended cells were aliquoted onto a sterile filter that was placed on the surface of 5 mL of solidified 5% sucrose agar in a plastic vial. Upon the drying of the vials at room temperature for 30 min, the flies were introduced to the vessels. Male Canton S flies (1-3 days old) were treated with antibiotics for 2 days and starved for 3 h before the addition to vials supplied with S. mutans (10-14 flies per vial). Nikon elipse 90i microscope, equipped with an Epi-fluorescence and NIS elements AR imaging system was used to analyze the colonization of flies by Gfp-tagged strains.

Chain of GtfB (P08987 35-1476 limits assumed): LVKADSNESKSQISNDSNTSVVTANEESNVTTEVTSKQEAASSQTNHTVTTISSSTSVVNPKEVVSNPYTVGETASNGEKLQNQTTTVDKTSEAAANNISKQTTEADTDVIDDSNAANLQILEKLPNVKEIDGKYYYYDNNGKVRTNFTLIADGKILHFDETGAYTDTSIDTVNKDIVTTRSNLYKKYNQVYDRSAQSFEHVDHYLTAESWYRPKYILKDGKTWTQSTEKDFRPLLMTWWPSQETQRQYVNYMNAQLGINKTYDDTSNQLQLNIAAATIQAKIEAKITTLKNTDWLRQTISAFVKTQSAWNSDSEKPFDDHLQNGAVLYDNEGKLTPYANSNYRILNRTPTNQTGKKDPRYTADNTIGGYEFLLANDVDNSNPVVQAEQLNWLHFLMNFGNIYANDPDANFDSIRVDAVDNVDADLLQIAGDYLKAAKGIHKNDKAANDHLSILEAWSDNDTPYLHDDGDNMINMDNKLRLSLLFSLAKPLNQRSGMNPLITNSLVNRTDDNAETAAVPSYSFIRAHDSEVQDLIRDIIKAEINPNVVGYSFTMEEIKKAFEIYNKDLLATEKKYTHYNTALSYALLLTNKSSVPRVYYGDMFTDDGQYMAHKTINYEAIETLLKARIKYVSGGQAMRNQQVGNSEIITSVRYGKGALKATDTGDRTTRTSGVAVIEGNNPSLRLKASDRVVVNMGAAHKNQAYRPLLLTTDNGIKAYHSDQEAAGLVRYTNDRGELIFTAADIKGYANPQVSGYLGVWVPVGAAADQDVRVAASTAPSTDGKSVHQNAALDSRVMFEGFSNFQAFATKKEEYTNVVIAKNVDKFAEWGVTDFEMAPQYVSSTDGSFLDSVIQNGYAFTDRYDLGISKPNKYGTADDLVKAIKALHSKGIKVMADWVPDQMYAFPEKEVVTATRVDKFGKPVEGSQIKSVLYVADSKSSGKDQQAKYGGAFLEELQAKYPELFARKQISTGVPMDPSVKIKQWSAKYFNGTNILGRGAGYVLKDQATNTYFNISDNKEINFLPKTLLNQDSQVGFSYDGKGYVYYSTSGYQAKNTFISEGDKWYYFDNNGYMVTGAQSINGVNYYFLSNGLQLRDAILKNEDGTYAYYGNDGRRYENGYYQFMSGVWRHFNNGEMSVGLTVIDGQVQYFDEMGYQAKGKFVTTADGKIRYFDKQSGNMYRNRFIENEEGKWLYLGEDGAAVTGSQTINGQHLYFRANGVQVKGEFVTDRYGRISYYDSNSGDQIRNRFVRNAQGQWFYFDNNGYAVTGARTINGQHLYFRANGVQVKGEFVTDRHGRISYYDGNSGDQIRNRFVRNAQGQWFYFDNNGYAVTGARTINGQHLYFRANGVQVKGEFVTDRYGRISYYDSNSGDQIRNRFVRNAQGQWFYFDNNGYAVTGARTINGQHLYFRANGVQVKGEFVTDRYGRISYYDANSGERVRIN
Chain of GtfC (P13470 35-1455 limits assumed): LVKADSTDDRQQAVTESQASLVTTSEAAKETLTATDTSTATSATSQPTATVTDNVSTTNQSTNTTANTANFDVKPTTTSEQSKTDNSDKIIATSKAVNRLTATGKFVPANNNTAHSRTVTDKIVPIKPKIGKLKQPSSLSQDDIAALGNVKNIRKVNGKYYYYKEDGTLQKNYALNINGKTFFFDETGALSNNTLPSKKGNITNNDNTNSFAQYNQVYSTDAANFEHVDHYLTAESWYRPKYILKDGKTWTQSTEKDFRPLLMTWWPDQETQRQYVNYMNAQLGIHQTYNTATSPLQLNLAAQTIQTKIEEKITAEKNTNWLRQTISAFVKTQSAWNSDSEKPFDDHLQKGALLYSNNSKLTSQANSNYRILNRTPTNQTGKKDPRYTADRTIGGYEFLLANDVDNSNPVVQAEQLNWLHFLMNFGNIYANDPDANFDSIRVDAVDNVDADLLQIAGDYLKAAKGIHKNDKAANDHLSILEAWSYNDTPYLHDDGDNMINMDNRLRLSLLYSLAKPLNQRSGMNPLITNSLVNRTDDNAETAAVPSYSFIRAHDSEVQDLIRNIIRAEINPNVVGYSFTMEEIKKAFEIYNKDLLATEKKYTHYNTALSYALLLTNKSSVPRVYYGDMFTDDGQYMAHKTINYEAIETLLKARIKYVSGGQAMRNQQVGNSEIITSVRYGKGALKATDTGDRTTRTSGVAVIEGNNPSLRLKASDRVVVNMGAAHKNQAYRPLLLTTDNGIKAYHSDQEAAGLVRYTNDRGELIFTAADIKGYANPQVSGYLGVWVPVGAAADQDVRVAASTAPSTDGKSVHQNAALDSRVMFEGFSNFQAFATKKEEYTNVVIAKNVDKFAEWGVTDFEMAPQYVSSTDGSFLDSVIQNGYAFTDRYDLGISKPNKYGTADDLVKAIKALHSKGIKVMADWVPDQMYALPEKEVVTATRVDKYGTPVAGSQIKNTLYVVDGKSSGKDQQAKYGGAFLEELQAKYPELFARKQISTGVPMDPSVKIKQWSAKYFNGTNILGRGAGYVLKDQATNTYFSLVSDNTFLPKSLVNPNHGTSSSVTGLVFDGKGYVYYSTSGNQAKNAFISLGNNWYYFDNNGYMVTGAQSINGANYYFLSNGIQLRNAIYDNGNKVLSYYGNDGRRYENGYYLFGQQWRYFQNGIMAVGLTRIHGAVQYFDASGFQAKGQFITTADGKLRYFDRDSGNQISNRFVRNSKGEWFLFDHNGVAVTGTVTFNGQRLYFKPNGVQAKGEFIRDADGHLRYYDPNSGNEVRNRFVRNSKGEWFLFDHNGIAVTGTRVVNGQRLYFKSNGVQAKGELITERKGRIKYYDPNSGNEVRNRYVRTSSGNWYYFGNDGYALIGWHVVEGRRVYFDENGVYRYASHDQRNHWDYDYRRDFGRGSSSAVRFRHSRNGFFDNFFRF

Compound | inhibition of GtfB activity (ImageJ band intensity) (GtfB) [%] | inhibition of GtfC activity (ImageJ band intensity) (GtfC) [%] | expression of gtfs versus DMSO (gtfs expression) | inhibition of Aggregatibacter actinomycetemcomitans growth [1] | inhibition of Actinomyces naeslundii growth [2] [%] | S. gordonii biofilm formation (S. gordonii biofilm) | fluorescence of Gfp tagged S. mutans in fly guts after 7 days (S. mutans colonization)
NC(=O)c1ccccc1NC(=O)c1cc2cc([N+](=O)[O-])ccc2s1 [#G43] | 80 | 80 | no significant difference was observed | no significant inhibition | > 20 | slight increase | 
Oc1cc(O)cc(/C=C/c2ccc(O)c(O)c2)c1 [Piceatannol] |  |  |  |  |  |  | significant decrease in fluorescence
